Data published in patent publication US20080145313A1, “Compositions and Methods for the Treatment and Prevention of Neoplastic Disorders” (Genesis Research & Development Corporation Limited, priority 2006, published 2008).

Test system: target transcript mRNA in A549 cells
Assay: Level of mRNA of target transcript in A549 cells by quantitative RT-PCR (Tables 12 and 13)
Format: cell-based, human
Settings: 24 h post-transfection; for mRNA knockdown of energy and metabolism gene target transcript, 10 nM: 10 nM siRNA
Description: A549 cells were transfected as described before with 0.1, 1.0 and 10 nM siRNA as listed in Tables 10 and 11 and the relative mRNA levels quantified 24 h post-transfection. RNA was purified from cells using Trizol® extraction as per the manufacturer's protocol (Invitrogen). cDNA was prepared by digesting approximately 200 ng purified RNA with DNAse I (Invitrogen) for 15 minutes at room temperature, followed by 15 minutes at 65° C. in the presence of 25 mM EDTA. 30 ng random primers were added and incubated for 10 minutes at 65° C., 1 minute on ice; Superscript® III polymerase (Invitrogen) was added in presence of 5 nM DTT (Invitrogen) and 1 mM deoxyribonucleotides (Invitrogen), and the reaction incubated at 25° C. for 5 minutes, followed by an hour at 50° C. cDNA was diluted 1:3 in 10 mM Tris pH 7.0, and quantitative RT-PCR carried out on an ABI Prism 7900HT (Applied Biosciences, Inc., Foster City, Calif.) using FastStart TaqMan SYBRGreen (Roche, Basel, Switzerland) or Platinum SYBR Green (Invitrogen) and 360 nM of the primers specific for gene targets and housekeeping genes HPRT and Lamin. Reduction in target mRNA levels following siRNA transfection are given in Tables 12 and 13, together with the gene specific primer sequences. Primer sequences used for the housekeeping genes HPRT and Lamin are given in SEQ ID NO: 4885-4888.

## 3544 (CTACCGCGAGCTGCGCTGGTT; chemistry not given here) [compound 3544]
0.1 nM siRNA
  mRNA knockdown of energy and metabolism gene target transcript, 0.1 nM: ++ (70-90% mRNA knockdown)
1 nM siRNA
  mRNA knockdown of energy and metabolism gene target transcript, 1 nM: ++ (70-90% mRNA knockdown)

## 3548 (GCAACTACCGCGAGCTGCGCTGGTT; chemistry not given here) [compound 3548]
0.1 nM siRNA
  mRNA knockdown of energy and metabolism gene target transcript, 0.1 nM: ++ (70-90% mRNA knockdown)
1 nM siRNA
  mRNA knockdown of energy and metabolism gene target transcript, 1 nM: ++ (70-90% mRNA knockdown)
  mRNA knockdown of energy and metabolism gene target transcript, 10 nM: +++ (>90% mRNA knockdown)

## 3595 (ACAGGAAGATCCTGCTCATCAG; chemistry not given here) [compound 3595]
0.1 nM siRNA
  mRNA knockdown of energy and metabolism gene target transcript, 0.1 nM: + (50-70% mRNA knockdown)
1 nM siRNA
  mRNA knockdown of energy and metabolism gene target transcript, 1 nM: ++ (70-90% mRNA knockdown)

## 3556 (TACGGATGTTGGGATCATTATTA; chemistry not given here) [compound 3556]
0.1 nM siRNA
  mRNA knockdown of energy and metabolism gene target transcript, 0.1 nM: ++ (70-90% mRNA knockdown)
1 nM siRNA
  mRNA knockdown of energy and metabolism gene target transcript, 1 nM: ++ (70-90% mRNA knockdown)

## 1698 (AGAACGTGAAGCTCCCTGACGCCTA; chemistry not given here) [compound 1698]
0.1 nM siRNA
  mRNA knockdown of energy and metabolism gene target transcript, 0.1 nM: + (50-70% mRNA knockdown)
1 nM siRNA
  mRNA knockdown of energy and metabolism gene target transcript, 1 nM: + (50-70% mRNA knockdown)

## 3540 (AGCCAAGGGTAGGAGCCCTACACTAGG; chemistry not given here) [compound 3540]
0.1 nM siRNA
  mRNA knockdown of energy and metabolism gene target transcript, 0.1 nM: − (<50% mRNA knockdown)
1 nM siRNA
  mRNA knockdown of energy and metabolism gene target transcript, 1 nM: − (<50% mRNA knockdown)
  mRNA knockdown of energy and metabolism gene target transcript, 10 nM: − (<50% mRNA knockdown)

## 1700 (CAAGAACGTGAAGCTCCCTGACGCCTA; chemistry not given here) [compound 1700]
0.1 nM siRNA
  mRNA knockdown of energy and metabolism gene target transcript, 0.1 nM: + (50-70% mRNA knockdown)
1 nM siRNA
  mRNA knockdown of energy and metabolism gene target transcript, 1 nM: ++ (70-90% mRNA knockdown)

## 3538 (CCAAGGGTAGGAGCCCTACACTAGG; chemistry not given here) [compound 3538]
0.1 nM siRNA
  mRNA knockdown of energy and metabolism gene target transcript, 0.1 nM: ++ (70-90% mRNA knockdown)
1 nM siRNA
  mRNA knockdown of energy and metabolism gene target transcript, 1 nM: ++ (70-90% mRNA knockdown)
  mRNA knockdown of energy and metabolism gene target transcript, 10 nM: +++ (>90% mRNA knockdown)

## 1693 (ATTTGCCAACAGGATCTTCGGCCCCATCTG; chemistry not given here) [compound 1693]
0.1 nM siRNA
  mRNA knockdown of energy and metabolism gene target transcript, 0.1 nM: − (<50% mRNA knockdown)
1 nM siRNA
  mRNA knockdown of energy and metabolism gene target transcript, 1 nM: − (<50% mRNA knockdown)

## 3557 (CTACGGATGTTGGGATCATTATTA; chemistry not given here) [compound 3557]
0.1 nM siRNA
  mRNA knockdown of energy and metabolism gene target transcript, 0.1 nM: ++ (70-90% mRNA knockdown)
1 nM siRNA
  mRNA knockdown of energy and metabolism gene target transcript, 1 nM: ++ (70-90% mRNA knockdown)

## 3542 (GGAGCCAAGGGTAGGAGCCCTACACTAGG; chemistry not given here) [compound 3542]
0.1 nM siRNA
  mRNA knockdown of energy and metabolism gene target transcript, 0.1 nM: + (50-70% mRNA knockdown)
1 nM siRNA
  mRNA knockdown of energy and metabolism gene target transcript, 1 nM: ++ (70-90% mRNA knockdown)

## 1690 (TGCCAACAGGATCTTCGGCCCCATCTG; chemistry not given here) [compound 1690]
0.1 nM siRNA
  mRNA knockdown of energy and metabolism gene target transcript, 0.1 nM: ++ (70-90% mRNA knockdown)
1 nM siRNA
  mRNA knockdown of energy and metabolism gene target transcript, 1 nM: ++ (70-90% mRNA knockdown)

## 1692 (TTTGCCAACAGGATCTTCGGCCCCATCTG; chemistry not given here) [compound 1692]
0.1 nM siRNA
  mRNA knockdown of energy and metabolism gene target transcript, 0.1 nM: − (<50% mRNA knockdown)
1 nM siRNA
  mRNA knockdown of energy and metabolism gene target transcript, 1 nM: − (<50% mRNA knockdown)

## 3574 (GCGGTTTTTCTCCAAGTACTC; chemistry not given here) [compound 3574]
0.1 nM siRNA
  mRNA knockdown of energy and metabolism gene target transcript, 0.1 nM: ++ (70-90% mRNA knockdown)
1 nM siRNA
  mRNA knockdown of energy and metabolism gene target transcript, 1 nM: +++ (>90% mRNA knockdown)

## 3555 (ACGGATGTTGGGATCATTATTA; chemistry not given here) [compound 3555]
0.1 nM siRNA
  mRNA knockdown of energy and metabolism gene target transcript, 0.1 nM: ++ (70-90% mRNA knockdown)
1 nM siRNA
  mRNA knockdown of energy and metabolism gene target transcript, 1 nM: ++ (70-90% mRNA knockdown)

## 3577 (GAAGCGGTTTTTCTCCAAGTACTC; chemistry not given here) [compound 3577]
0.1 nM siRNA
  mRNA knockdown of energy and metabolism gene target transcript, 0.1 nM: ++ (70-90% mRNA knockdown)
1 nM siRNA
  mRNA knockdown of energy and metabolism gene target transcript, 1 nM: +++ (>90% mRNA knockdown)

## 3576 (AAGCGGTTTTTCTCCAAGTACTC; chemistry not given here) [compound 3576]
0.1 nM siRNA
  mRNA knockdown of energy and metabolism gene target transcript, 0.1 nM: +++ (>90% mRNA knockdown)
1 nM siRNA
  mRNA knockdown of energy and metabolism gene target transcript, 1 nM: +++ (>90% mRNA knockdown)

## 1694 (CGTGAAGCTCCCTGACGCCTA; chemistry not given here) [compound 1694]
0.1 nM siRNA
  mRNA knockdown of energy and metabolism gene target transcript, 0.1 nM: − (<50% mRNA knockdown)
1 nM siRNA
  mRNA knockdown of energy and metabolism gene target transcript, 1 nM: − (<50% mRNA knockdown)

## 3541 (GAGCCAAGGGTAGGAGCCCTACACTAGG; chemistry not given here) [compound 3541]
0.1 nM siRNA
  mRNA knockdown of energy and metabolism gene target transcript, 0.1 nM: − (<50% mRNA knockdown)
1 nM siRNA
  mRNA knockdown of energy and metabolism gene target transcript, 1 nM: − (<50% mRNA knockdown)
  mRNA knockdown of energy and metabolism gene target transcript, 10 nM: − (<50% mRNA knockdown)

## SEQ ID NO: 4915: siRNA targeting SLC19A2 (ThTr1) (chain 1 ATGACATTCAGGCTGAACAGCGACC; chain 2 AUGACAUUCAGGCUGAACAGCGACC; chemistry not given here; one strand in two spellings)
0.1 nM siRNA
  mRNA knockdown of transporter gene target transcript, 0.1 nM: ++ (70-90% mRNA knockdown)
1 nM siRNA
  mRNA knockdown of transporter gene target transcript, 1 nM: ++ (70-90% mRNA knockdown)

## 3586 (AAACAGAGGAGCAAGATACAGGC; chemistry not given here) [compound 3586]
0.1 nM siRNA
  mRNA knockdown of energy and metabolism gene target transcript, 0.1 nM: ++ (70-90% mRNA knockdown)
1 nM siRNA
  mRNA knockdown of energy and metabolism gene target transcript, 1 nM: +++ (>90% mRNA knockdown)

## 3594 (CAGGAAGATCCTGCTCATCAG; chemistry not given here) [compound 3594]
0.1 nM siRNA
  mRNA knockdown of energy and metabolism gene target transcript, 0.1 nM: − (<50% mRNA knockdown)
1 nM siRNA
  mRNA knockdown of energy and metabolism gene target transcript, 1 nM: + (50-70% mRNA knockdown)

## 3578 (TGAAGCGGTTTTTCTCCAAGTACTC; chemistry not given here) [compound 3578]
0.1 nM siRNA
  mRNA knockdown of energy and metabolism gene target transcript, 0.1 nM: + (50-70% mRNA knockdown)
1 nM siRNA
  mRNA knockdown of energy and metabolism gene target transcript, 1 nM: ++ (70-90% mRNA knockdown)

## 3559 (GGCTACGGATGTTGGGATCATTATTA; chemistry not given here) [compound 3559]
0.1 nM siRNA
  mRNA knockdown of energy and metabolism gene target transcript, 0.1 nM: ++ (70-90% mRNA knockdown)
1 nM siRNA
  mRNA knockdown of energy and metabolism gene target transcript, 1 nM: ++ (70-90% mRNA knockdown)

## 3554 (CGGATGTTGGGATCATTATTA; chemistry not given here) [compound 3554]
0.1 nM siRNA
  mRNA knockdown of energy and metabolism gene target transcript, 0.1 nM: ++ (70-90% mRNA knockdown)
1 nM siRNA
  mRNA knockdown of energy and metabolism gene target transcript, 1 nM: ++ (70-90% mRNA knockdown)

## 1695 (ACGTGAAGCTCCCTGACGCCTA; chemistry not given here) [compound 1695]
0.1 nM siRNA
  mRNA knockdown of energy and metabolism gene target transcript, 0.1 nM: ++ (70-90% mRNA knockdown)
1 nM siRNA
  mRNA knockdown of energy and metabolism gene target transcript, 1 nM: ++ (70-90% mRNA knockdown)

## 3536 (AAGGGTAGGAGCCCTACACTAGG; chemistry not given here) [compound 3536]
0.1 nM siRNA
  mRNA knockdown of energy and metabolism gene target transcript, 0.1 nM: ++ (70-90% mRNA knockdown)
1 nM siRNA
  mRNA knockdown of energy and metabolism gene target transcript, 1 nM: +++ (>90% mRNA knockdown)
  mRNA knockdown of energy and metabolism gene target transcript, 10 nM: +++ (>90% mRNA knockdown)
